Here are results for one molecule from ChEMBL document CHEMBL1152441, “Discovery of [18F]N-(2-(diethylamino)ethyl)-6-fluoronicotinamide: a melanoma positron emission tomography imaging radiotracer with high tumor to body contrast ratio and rapid renal clearance” (J Med Chem, 2009).

Structures are written as SMILES.

Holding throughout (conditions): in vivo
Series [1] can be described thus: Biodistribution in eye of mouse B16F0 cells implanted C57BL/6J mouse assessed per gram of tissue at 0.4 to 5.5 MBq, iv after 0.5 hrs by gamma counter. The class given is ADME, organism-based.
The nature of series [2]: Biodistribution in tumor of mouse B16F0 cells implanted C57BL/6J mouse assessed per gram of tissue at 0.4 to 5.5 MBq, iv after 1 hr by gamma counter. The class given is ADME, organism-based, Neoplasm.
In another series the test system is Bone. As to the kind of experiment: Biodistribution in bone of mouse B16F0 cells implanted C57BL/6J mouse assessed per gram of tissue at 0.4 to 5.5 MBq, iv after 2 hrs by gamma counter. The class given is ADME, organism-based, Bone element.
The subject of another series is Intestine. As to the kind of experiment: Biodistribution in intestine of mouse B16F0 cells implanted C57BL/6J mouse assessed per gram of tissue at 0.4 to 5.5 MBq, iv after 0.25 hrs by gamma counter. The series is classed as ADME, organism-based.
The subject of series [3] is Stomach. As to the kind of experiment: Biodistribution in stomach of mouse B16F0 cells implanted C57BL/6J mouse assessed per gram of tissue at 0.4 to 5.5 MBq, iv after 2 hrs by gamma counter. The series is classed as ADME, organism-based.
In series [4] the test system is Stomach. Kind of series: Biodistribution in stomach of mouse B16F0 cells implanted C57BL/6J mouse assessed per gram of tissue at 0.4 to 5.5 MBq, iv after 1 hr by gamma counter. The class given is ADME, organism-based.
Series [5] relates to Thyroid gland. As to the kind of experiment: Biodistribution in thyroid of mouse B16F0 cells implanted C57BL/6J mouse assessed per gram of tissue at 0.4 to 5.5 MBq, iv after 0.5 hrs by gamma counter. The class given is ADME, organism-based.
Series [6] concerns Thyroid gland. Kind of series: Biodistribution in thyroid of mouse B16F0 cells implanted C57BL/6J mouse assessed per gram of tissue at 0.4 to 5.5 MBq, iv after 0.25 hrs by gamma counter. The series is classed as ADME, organism-based.
The subject of another series is Spleen. Kind of series: Biodistribution in spleen of mouse B16F0 cells implanted C57BL/6J mouse assessed per gram of tissue at 0.4 to 5.5 MBq, iv after 6 hrs by gamma counter. The class given is ADME, organism-based.
Series [7] concerns Lung. Kind of series: Biodistribution in lung of mouse B16F0 cells implanted C57BL/6J mouse assessed per gram of tissue at 0.4 to 5.5 MBq, iv after 2 hrs by gamma counter. The class given is ADME, organism-based.
Series [8] relates to Lung. As to the kind of experiment: Biodistribution in lung of mouse B16F0 cells implanted C57BL/6J mouse assessed per gram of tissue at 0.4 to 5.5 MBq, iv after 1 hr by gamma counter. The series is classed as ADME, organism-based.
Series [9] has as its system Lung. As to the kind of experiment: Biodistribution in lung of mouse B16F0 cells implanted C57BL/6J mouse assessed per gram of tissue at 0.4 to 5.5 MBq, iv after 0.5 hrs by gamma counter. The class given is ADME, organism-based.
A short description of series [10]: Biodistribution in eye of mouse B16F0 cells implanted C57BL/6J mouse assessed per gram of tissue at 0.4 to 5.5 MBq, iv after 6 hrs by gamma counter. The series is classed as ADME, organism-based.

In the case of `CCN(CC)CCNC(=O)c1ccc([18F])nc1`, the Drug uptake in [1] is 16%; in series [2], 8.4%; with Bone, 0.58%; in the series with Intestine it was 5.4%; with Stomach [3] it was 1.5%; in the series on Stomach [4], 3.4%. The Drug uptake in the series on Thyroid gland [5] is given as 2.5%; with Thyroid gland [6] it was 5.5%; with Spleen, 0.47%; with Lung [7], 0.38%; in the series on Lung [8] it was 1.6%; in the series on Lung [9], 2.9%. In series [10], this molecule yielded a Drug uptake of 15.6%.
